Read-outs that look alike come from different tables or passages of the source.
How the values were obtained:
[1] = test system: relapsed or refractory DLBCL; settings: cited from earlier work
[2] = L-MIND phase 2 study: safety (adverse events)
Protocol: MOR00208 was administered intravenously at a dose of 12 mg/kg, over approximately 2 hours. For cycles 1 to 3, MOR00208 was administered weekly on days 1, 8, 15, and 22; an additional loading dose was administered on day 4 of cycle 1. […] Patients self-administered lenalidomide orally, starting with 25 mg daily on days 1-21 of each 28-day cycle. A step-wise dose reduction (decrease by 5 mg/day in each step, only once per cycle, without re-escalation) of lenalidomide was permitted in case of protocol-defined toxicities.
Efficacy analyses are based on the full analysis set comprising all patients who received at least one dose of both MOR00208 and lenalidomide; safety analyses were based on those who received at least one dose of either study medication.

Row | Compound | Objective response rate ([1]; prior studies in similar populations) [%] | Grade 3 or 4 neutropenia ([2]; MOR00208 monotherapy after discontinuation of lenalidomide, 6/51 patients) [%] | Adverse events of grade 3 or 4 ([2]; after lenalidomide discontinuation, 15/51 patients) [%] | Objective response rate ([1]; single-agent, relapsed or refractory DLBCL (Ann. Oncol. 29, 1266-1272, 2018)) [%]
1 | Nc1cccc2c1CN(C1CCC(=O)NC1=O)C2=O (stereo not shown) [lenalidomide] | 28 |  |  | 
2 | MOR00208: Fc-enhanced humanized anti-CD19 monoclonal antibody, sequences in Table 1 (SEQ ID NO: 1-12) |  | 11.8 | 29.4 | 26

— patent publication US20210130460A1, “ANTI-CD19 THERAPY IN COMBINATION WITH LENALIDOMIDE FOR THE TREATMENT OF LEUKEMIA OR LYMPHOMA” (MORPHOSYS AG, priority 2019, published 2021)
